Measured values: patent US10261079B2, “Method for determining kinetic profiles in drug discovery” (priority 2015, dated 2019)
Blank lines part the entries; values can stand above or below the molecule they belong to.

What was measured:
[1] = target: T1, PI3Kdelta (Homo sapiens, UniProt O00329); experiment: TR-FRET kinetic competitive binding, Binding Kinetic Profiling mode; details: Tracer 314 5 nM, compound 250 nM to 0
T1 construct: purchased Carna Biosciences
Description: X is time, expressed in min.
The present example illustrates the kinetic characterization of two different inhibitors against the same target by using the platform of the invention in the Binding Kinetic Profiling mode. […] The characterized Tracer^314 (Life Technologies) has been used as labeled ligand (tracer).
In order to determine the kinetic profile of these inhibitors (Kon, Koff, Kd and t1/2), experimental data were fitted to the “Kinetics of competitive binding”. This model describes the kinetic behavior of two compounds when compete for the binding to the same target.
The experiment is performed as described in Example 1 for the tracer characterization. The samples are prepared in the kinase buffer A at the same concentrations described in example 1 (PI3Kdelta at 0.5 nM and Eu-antiGST antibody at 2 nM). Control wells in the microplate with PI-103 inhibitor at 10 μM are also included to account for unspecific binding. […] These serial dilutions were prepared in a mother plate (at 2 times the assay concentration) and quickly dispensed to the analysis plate, being the last one disposed in the well the kinase PI3Kdelta.
The tracer concentration (L) is also constrained to the tracer concentration employed in the assay, i.e., 5 nM in the present example. […] The term t1/2 is calculated as −ln[0.5] divided by the K4 value.

[2] = target: CDK8/Cyclin C (Homo sapiens, UniProt P49336); experiment: TR-FRET kinetic competitive binding, Kinetic Selectivity Profiling mode; details: Tracer 236 10 nM, kinase 2 nM
Chain of CDK8/Cyclin C (P49336 whole entry, species assumed): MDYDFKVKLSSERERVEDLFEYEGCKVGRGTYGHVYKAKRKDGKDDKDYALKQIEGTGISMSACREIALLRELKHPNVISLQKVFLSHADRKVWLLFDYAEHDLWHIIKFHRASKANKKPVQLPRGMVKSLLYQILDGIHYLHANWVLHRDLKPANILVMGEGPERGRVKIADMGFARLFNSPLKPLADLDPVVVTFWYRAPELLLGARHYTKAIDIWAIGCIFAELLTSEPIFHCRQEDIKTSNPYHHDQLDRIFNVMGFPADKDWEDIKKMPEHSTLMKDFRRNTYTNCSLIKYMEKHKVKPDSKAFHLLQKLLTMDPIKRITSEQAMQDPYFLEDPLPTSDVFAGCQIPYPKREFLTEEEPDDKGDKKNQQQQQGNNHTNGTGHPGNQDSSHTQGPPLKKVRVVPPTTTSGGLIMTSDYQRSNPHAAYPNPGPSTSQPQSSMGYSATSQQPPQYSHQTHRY
Chain of CDK8/Cyclin C (P24863 whole entry partner, species assumed): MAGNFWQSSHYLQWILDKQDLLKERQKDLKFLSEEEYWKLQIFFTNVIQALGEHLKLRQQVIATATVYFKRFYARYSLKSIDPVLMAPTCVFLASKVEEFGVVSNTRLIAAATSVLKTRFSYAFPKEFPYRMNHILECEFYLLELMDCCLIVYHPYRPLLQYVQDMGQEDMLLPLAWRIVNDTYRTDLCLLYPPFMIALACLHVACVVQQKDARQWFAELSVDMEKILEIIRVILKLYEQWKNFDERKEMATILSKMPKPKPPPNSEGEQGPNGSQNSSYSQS
Description: SQRT is the mathematical abbreviation for squared root. X is time, expressed in min.

T1 sequence (O00329 whole entry): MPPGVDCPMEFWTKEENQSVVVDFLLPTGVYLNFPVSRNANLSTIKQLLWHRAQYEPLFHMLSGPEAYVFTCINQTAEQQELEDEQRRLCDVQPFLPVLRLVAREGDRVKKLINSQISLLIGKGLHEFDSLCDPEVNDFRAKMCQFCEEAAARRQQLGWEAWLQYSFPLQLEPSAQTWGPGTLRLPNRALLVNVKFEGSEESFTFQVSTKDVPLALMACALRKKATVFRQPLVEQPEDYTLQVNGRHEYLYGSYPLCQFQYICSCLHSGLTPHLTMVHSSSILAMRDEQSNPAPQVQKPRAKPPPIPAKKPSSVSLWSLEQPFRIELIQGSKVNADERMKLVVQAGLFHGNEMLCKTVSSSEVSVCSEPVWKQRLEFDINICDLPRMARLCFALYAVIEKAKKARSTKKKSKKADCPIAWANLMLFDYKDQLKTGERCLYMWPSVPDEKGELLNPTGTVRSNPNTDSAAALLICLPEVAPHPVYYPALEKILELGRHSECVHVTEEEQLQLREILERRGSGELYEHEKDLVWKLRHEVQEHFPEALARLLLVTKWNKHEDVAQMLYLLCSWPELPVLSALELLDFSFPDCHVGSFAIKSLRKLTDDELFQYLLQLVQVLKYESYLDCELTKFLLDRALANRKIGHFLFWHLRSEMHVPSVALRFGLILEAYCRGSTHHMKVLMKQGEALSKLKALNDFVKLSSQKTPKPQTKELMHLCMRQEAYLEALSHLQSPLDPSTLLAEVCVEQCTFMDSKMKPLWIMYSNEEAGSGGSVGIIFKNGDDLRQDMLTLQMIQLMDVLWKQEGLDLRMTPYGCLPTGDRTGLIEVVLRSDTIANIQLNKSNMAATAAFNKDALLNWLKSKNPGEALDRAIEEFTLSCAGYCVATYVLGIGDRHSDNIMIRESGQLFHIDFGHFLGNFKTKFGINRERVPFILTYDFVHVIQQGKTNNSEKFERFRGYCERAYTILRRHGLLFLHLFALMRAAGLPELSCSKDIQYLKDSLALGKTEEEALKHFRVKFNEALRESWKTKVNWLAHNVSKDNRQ
T1 sequence (P27986 whole entry partner): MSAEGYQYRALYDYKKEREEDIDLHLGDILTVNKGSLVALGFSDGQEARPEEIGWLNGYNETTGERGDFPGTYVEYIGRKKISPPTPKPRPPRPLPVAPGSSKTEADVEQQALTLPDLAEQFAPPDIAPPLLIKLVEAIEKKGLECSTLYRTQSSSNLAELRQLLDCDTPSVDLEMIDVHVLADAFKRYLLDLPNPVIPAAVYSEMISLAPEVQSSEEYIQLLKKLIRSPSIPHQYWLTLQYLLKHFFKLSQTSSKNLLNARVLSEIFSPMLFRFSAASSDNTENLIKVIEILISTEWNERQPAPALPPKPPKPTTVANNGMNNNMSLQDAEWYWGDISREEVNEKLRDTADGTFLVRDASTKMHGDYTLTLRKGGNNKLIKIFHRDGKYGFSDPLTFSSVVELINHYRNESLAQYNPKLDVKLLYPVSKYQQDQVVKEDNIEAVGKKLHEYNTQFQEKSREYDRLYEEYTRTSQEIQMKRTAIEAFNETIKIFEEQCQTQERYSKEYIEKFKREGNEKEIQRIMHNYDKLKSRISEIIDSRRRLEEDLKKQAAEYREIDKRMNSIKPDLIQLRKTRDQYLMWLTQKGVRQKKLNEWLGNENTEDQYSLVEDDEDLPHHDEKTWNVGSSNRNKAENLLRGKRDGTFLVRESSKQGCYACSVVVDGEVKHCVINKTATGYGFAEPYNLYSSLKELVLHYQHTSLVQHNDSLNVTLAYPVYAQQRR

Compound: COC[C@H]1OC(=O)c2coc3c2[C@@]1(C)C1=C(C3=O)[C@@H]2CCC(=O)[C@@]2(C)C[C@H]1OC(C)=O [Wortmanine]
dissociative half-life of the complex with PI3Kdelta (t1/2) [1]: around 300 min

Compound: CN[C@@H]1C[C@H]2O[C@@](C)([C@@H]1OC)n1c3ccccc3c3c4c(c5c6ccccc6n2c5c31)C(=O)NC4 [Staurosporine]
duration of the interaction with CDK8 [2]: 20 min

dissociation from the target [1]: mili-seconds
Compound: Cn1c(=O)n(-c2ccc(C(C)(C)C#N)cc2)c2c3cc(-c4cnc5ccccc5c4)ccc3ncc21 [BEZ235]
